Tested on: boar salivary gland steroid 5-α-reductase (boar 4-ene-5-α-reductase enzyme)
Test: Boar steroid 5α-reductase enzyme activity and inhibitor potency assay ([14C]testosterone conversion, boar salivary gland microsomes)
Format: biochemical
Settings: 500 nM compound, 37° C., 30 minutes
Protocol: Microsomal preparations from boar salivary glands were prepared by the protocol desbribed by Liang, et al. for human prostatic microsomal 5-α-reductase.
Assay for enzyme activity and inhibitor potency.
A constant amount of [^14 C]testosterone (50 to 55 mCi/mmol) in ethanol and varying amounts of potential inhibitor (or no inhibitor i.e. control) in ethanol were deposited in test tubes and concentrated to dryness in vacuo. Assays for boar steroid 5α-reductase enzyme were conducted with a sample of the boar salivary gland 5-α-reductase in 50 mM phosphate buffer, pH 7.5 or in 50 mM citrate buffer at pH 5.0. To each tube was added buffer, 40 μl of microsomal preparation from boar salivary glands (hereinafter boar salivary gland steroid 5-α-reductase) and 20 μl of 20 mM NADPH to a final volume of 0.5 mL.
After incubating the solution at 37° C. for 30 minutes the reaction was quenched by the addition of 4 mL ethyl acetate and 0.25 μmol each of testosterone, 5α-dihydrotestosterone, androstanediol, and androstanedione as carriers. The organic layer was removed to a second test tube and evaporated to dryness in a Speed Vac. The residue was dissolved in 40 μL chloroform, spotted on an individual lane of a 20×20 cm prechannelled silica gel TLC plate (Si 250F-PA, Baker Chemical) and developed twice with acetone:chloroform (1:9). The radiochemical content in the bands of the substrate and the products was determined with a BIOSCAN Imaging Scanner (Bioscan Inc., Washington, D.C.). The percent of recovered radiolabel converted to product was calculated, from which enzyme activity was determined. All incubations were conducted such that no more than 20% of the substrate (testosterone) was consumed.
By following the above procedure in the absence of an inhibitor (i.e. control) a significant formation of 5-α-dihydrotestosterone, and the androstanediols occurred which indicated the presence of a high level of 4-ene-5-α-reductase enzyme activity in the microsomes prepared from the salivary glands of the boar.

[1] = pH 7.5 (50 mM phosphate buffer)

SMILES | inhibition of the boar 5-α-reductase enzyme (vs. control) (pH 5 (50 mM citrate buffer)) [%] | inhibition of the boar 5-α-reductase enzyme (vs. control) [1] [%]
CC(C)(C)NC(=O)[C@H]1CC[C@H]2[C@@H]3CCc4cc(C(=O)O)ccc4[C@H]3CC[C@]12C [17β-(N-t-butylcarboxamide)-estr-1,3,5(10)triene-3-carboxylic acid] | ~65 | 80
CC(C)(C)NC(=O)[C@H]1CC[C@H]2[C@@H]3CC=C4C=C(C(=O)O)CC[C@]4(C)[C@H]3CC[C@]12C [17β-(N-t-butylcarboxamide)-androst-3,5-diene-3-carboxylic acid] | – | 50
CC(C)(C)NC(=O)[C@H]1CC[C@H]2[C@@H]3CC[C@H]4NC(=O)C=C[C@]4(C)[C@H]3CC[C@]12C [17β-(N-t-butylcarbamoyl)-4-aza-5α-androst-1-en-3-one] | – | 50

Reference: patent US5604214A, “Reduction of boar odor in meat” (Pfizer Inc., priority 1993, dated 1997)
